Test results published in patent US11597708B2, “Inhibitors of heat shock factors and uses thereof” (HSF Pharmaceuticals SA, priority 2016, dated 2023).

How the values were obtained:
LexA-hHSF = target: T1, LexA-hHSF (Homo sapiens, UniProt Q00613); assay: Z74 cell-based reporter assay: heat-induced FLuc expression controlled by chimeric LexA-HSF1; conditions: IHSF 001 tested at 25 μM
T1 construct: expressed in transfected cells; the other entry of the earlier key: lexA (P0A7C2, LexA repressor)
T1 sequence (Q00613 with tags, fused parts or gaps): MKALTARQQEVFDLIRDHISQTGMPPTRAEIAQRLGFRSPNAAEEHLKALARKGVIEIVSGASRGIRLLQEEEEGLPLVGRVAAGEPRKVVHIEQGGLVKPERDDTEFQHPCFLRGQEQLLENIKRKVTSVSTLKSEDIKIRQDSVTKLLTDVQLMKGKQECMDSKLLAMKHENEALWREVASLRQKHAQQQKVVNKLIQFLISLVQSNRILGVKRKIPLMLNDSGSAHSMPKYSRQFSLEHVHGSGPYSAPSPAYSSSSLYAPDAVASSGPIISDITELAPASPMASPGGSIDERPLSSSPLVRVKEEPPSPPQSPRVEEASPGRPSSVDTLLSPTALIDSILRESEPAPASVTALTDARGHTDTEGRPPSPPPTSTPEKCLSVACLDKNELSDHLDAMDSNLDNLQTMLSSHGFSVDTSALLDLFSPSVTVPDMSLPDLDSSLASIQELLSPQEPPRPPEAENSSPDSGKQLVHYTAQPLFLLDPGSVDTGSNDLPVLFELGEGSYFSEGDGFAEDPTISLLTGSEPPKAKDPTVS
Excerpt: For screening this sublibrary, a cell-based assay was developed. We opted for a cell-based assay, because a cell-free assay would have had to be a DNA-binding assay. Such an assay would have limited discovery to molecules capable of interfering with the DNA-binding function of HSF1. This was thought to be too narrow a focus, considering that three of the four cavities identified in the HSF1 DNA-binding domain are not near the DNA interaction region. A straightforward cell-based assay, in which a HSF1-responsive gene would be assayed, was considered likely to be over-inclusive. Compounds would be scored as hits that inhibit any factor that is involved in HSF1 activation or prevents HSF1 deactivation. These factors include protein kinases, activators of protein phosphatases, factors affecting HSF1 mRNA stability, HSP90, HDAC6, etc. For developing a more discriminating cell-based assay, advantage was taken of the modular nature of HSF1. […] The cell-based assay developed (see below for the particular format employed) compared transactivation by wild type HSF1 and chimeric HSF1 in cells exposed to an HSF1-activating heat treatment in the presence of a sublibrary compound. A compound was scored as a hit, if it inhibited the activity of wild type HSF1 but not of chimeric HSF1.
The cell-based assay made use of HeLa-derived cell line Z74 that stably contains a gene for chimeric transcription factor LexA-(human) HSF1 under the control of a CMV early promoter, a firefly luciferase (flue) gene driven by a promoter responsive to the latter chimeric transcription factor and a Renilla luciferase (rluc) gene functionally linked to an hsp70b promoter and therefore controlled by endogenous HSF1 (FIG. 1A). As is shown in FIGS. 1B & C, the reporter genes responded similarly to heat dose, i.e., their activation depended on both duration of heat exposure and temperature of the exposure. […] Depletion of HSF1 (and LexA-HSF1) by siRNA supported the notion that this stress regulation is mediated by HSF1 (and LexA-HSF1). Therefore, the Z74 line was well suited for use in a screening assay aimed at discovering molecules that inhibit heat-induced HSF1 activity through interaction with the transcription factor's DNA-binding domain.
The compounds of the afore-mentioned biased sublibrary were screened in cell line Z74 at 12.5 and 25 μM concentrations. Typically, Z74 cultures in 96-well plates were exposed to compound or vehicle for 2 h, heat-treated at 43.0° C. for 30 min, and incubated further for 6 h at 37° C. to allow for accumulation of the luciferases. RLuc and FLuc activities were determined, typically using the Dual-Glo® Luciferase Assay System (Promega Corp., Madison, Wis.), and reading luciferase light counts in a Wallac Microbeta Trilux-1450 Luminometer (PerkinElmer, Waltham, Mass.). IHSF 001 was one of two library compounds that inhibited RLuc expression but not FLuc expression in heat-treated Z74 cells (Table 1; FIG. 2A). Therefore, IHSF 001 is an inhibitor of HSF1 function that specifically acts through the HSF1 DNA-binding domain. […] A corroborating experiment utilized a cell line containing an hsp70b promoter-driven fluc gene. […] IHSF 001 is (E)-ethyl 4-oxo-4-(thiazol-2-ylamino)but-2-enoate. The compound can be obtained from commercial sources (e.g., AKE-PB-90340538, Akos).

[1] = target: T2, HSF1 occupancy of the hspa1a promoter (Homo sapiens, UniProt Q00613); assay: Chromatin immunoprecipitation, HSF1 occupancy of hspa1a promoter in HeLa cells; assay type: cell-based; conditions: 12.5 μM for two hours, then heat-treated
T2 construct: functionally linked to an hsp70b promoter and therefore controlled by endogenous HSF1; endogenous in cells; host or cells: HeLa cells / HeLa-derived cell line Z74
T2 sequence (Q00613 whole entry): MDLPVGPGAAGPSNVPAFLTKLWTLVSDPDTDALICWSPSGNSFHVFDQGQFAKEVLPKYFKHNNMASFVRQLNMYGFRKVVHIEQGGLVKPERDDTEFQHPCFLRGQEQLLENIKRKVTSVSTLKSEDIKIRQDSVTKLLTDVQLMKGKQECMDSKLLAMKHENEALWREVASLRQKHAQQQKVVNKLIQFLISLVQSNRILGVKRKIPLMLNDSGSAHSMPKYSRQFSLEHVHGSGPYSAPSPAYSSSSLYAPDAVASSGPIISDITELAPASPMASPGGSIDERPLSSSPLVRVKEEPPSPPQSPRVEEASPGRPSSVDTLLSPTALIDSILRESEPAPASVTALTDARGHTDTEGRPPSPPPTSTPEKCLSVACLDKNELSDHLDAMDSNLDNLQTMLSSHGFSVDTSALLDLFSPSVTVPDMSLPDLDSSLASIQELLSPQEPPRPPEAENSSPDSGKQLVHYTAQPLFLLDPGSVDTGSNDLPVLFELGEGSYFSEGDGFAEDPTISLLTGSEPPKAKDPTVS
Procedure: FIG. 3. (A) HeLa cell cultures were mock-treated (−) or exposed for 2 hours to the indicated concentrations of compounds 058 or 115 and then heat-treated (HS) at 43° C. for 30 min. Top panels: HSF1 DNA-binding activities in cell extracts were determined by EMSA. The panels show the major HSF1-HSE DNA probe complexes. Middle panels: HSF1 levels assayed by western blot (WB). GAPDH served as a loading control. Bottom panels: HSF1 homooligomerization. Aliquots of extracts were EGS-treated and then analyzed by anti-HSF1 WB. The positions of pre-stained molecular weight marker proteins (MW, in thousands) are indicated to the right. Asterisks indicate the positions of monomeric and trimeric HSF1, respectively. (B) Relative occupancy of the hspa1a promoter was assessed by chromatin immunoprecipitation assay of HeLa cell cultures mock-treated (−) or treated with compounds 058 or 115 at 12.5 μM concentrations for 2 hours and then heat-treated (HS) at 43° C. for 30 min. Chromatin fragments were immunoprecipitated using HSF1 antibodies or an F4/80 LR (control) antibody, and associated hspa1a promoter DNA was quantified by real-time PCR.
We also investigated whether the compounds were capable of interfering with HSF1 oligomerization. Aliquots of the extracts were subjected to cross-linking with EGS (ethylene glycolbis(succinimidylsuccinate)) and then re-analyzed by anti-HSF1 WB. […]

SMILES	inhibition at 25 µM (LexA-hHSF; Experiment No. 1)	inhibition at 25 µM (LexA-hHSF; Experiment No. 2)	inhibition at 25 µM (LexA-hHSF; Experiment No. 3)	inhibition at 25 µM (LexA-hHSF; Experiment No. 4)	inhibition at 25 µM (LexA-hHSF; Experiment No. 5)	inhibition at 25 µM (LexA-hHSF; Experiment No. 6)	inhibition at 25 µM (LexA-hHSF; Experiment No. 7)	inhibition at 25 µM (LexA-hHSF; Experiment No. 8)	inhibition at 25 µM (LexA-hHSF; Experiment No. 9)	HSF1 occupancy of the hspa1a promoter (ChIP) [1]
CCOC(=O)/C=C/C(=O)Nc1nccs1 [IHSF 001, (E)-ethyl 4-oxo-4-(thiazol-2-ylamino)but-2-enoate]	3%	0%	0%	0%	0%	0%	0%	0%	15%	
CN(C(=O)/C=C/C1=NCCCO1)c1ncc(-c2cccnc2)s1 [IHSF 115, (E)-3-(5,6-Dihydro-4H-[1,3]oxazin-2-yl)-N-methyl-N-(5-pyridin-3-yl-thiazol-2-yl)-acrylamide]										not reduced substantially
